Results from patent US20170094972A1, “Compounds and Compositions Having Knock-Down Activity Against Insect Pests” (priority 2015, published 2017).

Legend:
Type in all cases: in vivo
Anopheles stephensi [1] = experiment: 6 well plate test, knockdown after 1 hour and mortality after 24 and 48 hours
Experimental: The individual wells of six (6) well tissue culture plates were treated with […] of an ethanol solution containing a test compound at a defined concentration. Once the deposits were dry, ten non-blood fed adult female Anopheles stephensi (between two to five day old) were added to each well, and sustained with a 10% sucrose solution in a cotton wool plug. Assessment of the knockdown after 1 hour (Tables B1-B10), and mortality after 24 and 48 hours (Tables B1-B4) was carried out.
In case of multiple tests, the mean value is reported.

Aedes aegypti = experiment: 12 well plate knockdown test; settings: 1 h, read-out: Aedes aegypti 1 hour % KD; for pest or weed control at 0.2 ppm: Rate 0.2 PPM; for pest or weed control at 2 ppm: Rate 2 PPM; for pest or weed control at 20 ppm: Rate 20 PPM; for pest or weed control at 200 ppm: Rate 200 PPM
Experimental: (§1) The individual wells of a twelve (12) well tissue culture plates were treated with 100 μl of an ethanol solution containing a test compound at a defined concentration. Once the deposits were dry, five non-blood fed adult female Aedes aegypti or Anopheles stephensi (between two to five day old) were added to each well, and sustained with a 10% sucrose solution in a cotton wool plug. Assessment of the knockdown after 1 hour was carried out. Where multiple replicates of a treatment have been undertaken, the mean of those replicates is reported.

Anopheles stephensi [2] = experiment: 12 well plate knockdown test; settings: 1 h, read-out: Anopheles stephensi 1 hour % KD; for pest or weed control at 0.2 ppm: Rate 0.2 PPM; for pest or weed control at 2 ppm: Rate 2 PPM; for pest or weed control at 20 ppm: Rate 20 PPM; for pest or weed control at 200 ppm: Rate 200 PPM
Experimental: as §1

| Compound | pest or weed control at 0.2 ppm (Aedes aegypti) | pest or weed control at 2 ppm (Aedes aegypti) | pest or weed control at 20 ppm (Aedes aegypti) | pest or weed control at 200 ppm (Aedes aegypti) | pest or weed control at 0.2 ppm (Anopheles stephensi [2]) | pest or weed control at 2 ppm (Anopheles stephensi [2]) | pest or weed control at 20 ppm (Anopheles stephensi [2]) | pest or weed control at 200 ppm (Anopheles stephensi [2]) | other results |
| --- | --- | --- | --- | --- | --- | --- | --- | --- | --- |
| CC1(C)[C@H](C(=O)O[C@H](C#N)c2cccc(Oc3ccccc3)c2)[C@@H]1/C=C(\Cl)C(F)(F)F (racemic) [Lambda-cyhalothrin] | – | – | – | – | – | – | – | – | knockdown after 1 hour, Alone (Anopheles stephensi [1]; Table B5, 0.025 ppm): 0; knockdown after 1 hour, Alone (Anopheles stephensi [1]; Table B5, 0.05 ppm): 0; knockdown after 1 hour, Alone (Anopheles stephensi [1]; Table B5, 0.1 ppm): 0; knockdown after 1 hour, Alone (Anopheles stephensi [1]; Table B5, 0.2 ppm): 40 |
| CNC(=O)c1cc(Cl)cc(C)c1NC(=O)c1cc(Br)nn1-c1ncccc1Cl [Chlorantraniliprole] | – | – | – | – | – | – | – | – | knockdown after 1 hour, Alone (Anopheles stephensi [1]; Table B9, 12.5 ppm): 0; knockdown after 1 hour, Alone (Anopheles stephensi [1]; Table B9, 25 ppm): 0; knockdown after 1 hour, Alone (Anopheles stephensi [1]; Table B9, 50 ppm): 0; knockdown after 1 hour, Alone (Anopheles stephensi [1]; Table B9, 100 ppm): 20; knockdown after 1 hour, Alone (Anopheles stephensi [1]; Table B9, 200 ppm): 40 |
| CNC(=O)c1cc(C#N)cc(C)c1NC(=O)c1cc(Br)nn1-c1ncccc1Cl [Cyantraniliprole] | – | – | – | – | – | – | – | – | knockdown after 1 hour, Alone (Anopheles stephensi [1]; Table B8, 6.25 ppm): 0; knockdown after 1 hour, Alone (Anopheles stephensi [1]; Table B8, 12.5 ppm): 0; knockdown after 1 hour, Alone (Anopheles stephensi [1]; Table B8, 25 ppm): 0; knockdown after 1 hour, Alone (Anopheles stephensi [1]; Table B8, 50 ppm): 0; knockdown after 1 hour, Alone (Anopheles stephensi [1]; Table B8, 100 ppm): 0; knockdown after 1 hour, Alone (Anopheles stephensi [1]; Table B8, 200 ppm): 20 |
| O=C(NCc1ccc(Cl)cc1)c1cnccc1C(F)(F)F [I.2] | 100% | 100% | 100% | 100% | 0% | 60% | 80% | 100% | – |
| CN(C)C(=O)c1cnccc1C(F)(F)F [I.4] | 100% | 100% | 100% | 100% | 40% | 100% | 100% | 100% | – |
| O=c1nc(-c2cnccc2C(F)(F)F)os1 [I.5] | 100% | 100% | 100% | 100% | 60% | 100% | 100% | 100% | – |
| CN(C)CNC(=O)c1cnccc1C(F)(F)F [I.6] | 100% | 100% | 100% | 100% | 0% | 20% | 40% | 40% | – |
| CC(C)n1nc(-c2cnccc2C(F)(F)F)oc1=O [I.7] | 100% | 100% | 100% | 100% | 0% | 0% | 0% | 20% | – |
| CN(OC(=O)OCc1ccccc1)C(=O)c1cnccc1C(F)(F)F [I.8] | 100% | 100% | 100% | 100% | 60% | 100% | 100% | 100% | – |
| CCOC(=O)ON(C)C(=O)c1cnccc1C(F)(F)F [I.9] | 100% | 100% | 100% | 100% | 20% | 100% | 100% | 100% | – |
